Assay results from PubChem BioAssay (NCI).
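These data come from cells grown in 96-well plates and exposed to compound for 48 hours at five concentrations. The concentration for 50% growth inhibition is given as GI50. TGI marks complete inhibition of growth.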

Key:
Assay in all cases: NCI tumour cell line growth inhibition, 48 h
786-0 renal = test system: 786-0 renal
SNB-19 CNS = test system: SNB-19 CNS
OVCAR-8 ovarian = test system: OVCAR-8 ovarian
DU-145 prostate = test system: DU-145 prostate
COLO 205 colon = test system: COLO 205 colon
SF-268 CNS = test system: SF-268 CNS
MCF7 breast = test system: MCF7 breast
TK-10 renal = test system: TK-10 renal
A549 NSCLC = test system: A549 NSCLC
RXF 393 renal = test system: RXF 393 renal

`Cc1ccc(S(=O)(=O)n2cc(C(=O)C(=O)Nc3ccncc3)c3ccccc32)cc1` gave a GI50 (786-0 renal) of 3.89 µM, a TGI (786-0 renal) greater than 73.2 µM and a GI50 (SNB-19 CNS) of 7.37 µM. It also gave a TGI (SNB-19 CNS) greater than 100 µM, a GI50 (OVCAR-8 ovarian) of 3.1 µM and a TGI (OVCAR-8 ovarian) greater than 100 µM. The GI50 (DU-145 prostate) was 3.34 µM, the TGI (DU-145 prostate) was greater than 100 µM and the GI50 (COLO 205 colon) was 18.7 µM. It also gave a TGI (COLO 205 colon) of 48.1 µM, a GI50 (SF-268 CNS) of 2 µM and a TGI (SF-268 CNS) greater than 100 µM. For the same molecule, the GI50 (MCF7 breast) was 0.373 µM, the TGI (MCF7 breast) was 27.3 µM and the GI50 (TK-10 renal) was 16.8 µM. It also gave a TGI (TK-10 renal) greater than 100 µM, a GI50 (A549 NSCLC) of 16.5 µM and a TGI (A549 NSCLC) greater than 100 µM. The GI50 (RXF 393 renal) was 2.7 µM and the TGI (RXF 393 renal) was 9.29 µM.
